Results on two compounds are retold here after publication doi:10.1101/2022.03.22.485260v1 (biorxiv, 2022).

Where two headings read alike, the source gives them in different places.

Test [1] has as its target T1, hTMPK (thymidylate kinase) (Homo sapiens, UniProt P23919).
T1 sequence (P23919 2-212): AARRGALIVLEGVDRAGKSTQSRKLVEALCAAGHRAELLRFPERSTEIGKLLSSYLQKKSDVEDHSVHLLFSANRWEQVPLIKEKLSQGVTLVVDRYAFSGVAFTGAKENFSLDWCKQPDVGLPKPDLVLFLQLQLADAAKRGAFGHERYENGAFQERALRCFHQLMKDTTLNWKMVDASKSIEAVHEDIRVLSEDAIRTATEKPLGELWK
The test is described as follows: NADH-coupled. The test is classed as biochemical.

Test [2] addresses T1, hTMPK (thymidylate kinase). The test is described as follows: NADH-coupled assay, […] min pre-incubation, non-linear fit. Type of test: biochemical. The conditions noted are these: ATP varied 0-200 μM, 500 μM TMP; mixed inhibition; pH 7.5, 25 °C.

As a reminder, the IC50 is the concentration needed to halve the response being measured. Read a high IC50 as weaker potency. Broadly, the Ki is a measure of affinity in units of concentration, obtained from inhibition or displacement. The low end stands for tighter binding, the high end for weaker binding.

The compound `CC(C)(C)OC(=O)N1CCN(C(=O)Cn2sc3ccccc3c2=O)CC1` [JMF2977] showed an IC50 in test [1] of 0.5 µM.

In the case of “Tert-butyl 4-(2-(5-fluoro-3-oxobenzo[d]isothiazol-2(3H)-yl) acetyl) piperazine-1-carboxylate [JMF4073]”, in test [2], affinity was put at a Ki of 0.005 µM. Further, half-maximal inhibition in test [1] (500 μM ATP, 500 μM dTMP, 10 mM MgCl2, pH 7.5, 25 °C) (IC50) required 0.16 µM.
